Consider two compounds from paper PMC6888133, “Identification and Characterization of a Fatty Acid- and Retinoid-Binding Protein Gene (Ar-far-1) from the Chrysanthemum Foliar Nematode, Aphelenchoides ritzemabosi” (International Journal of Molecular Sciences, 2019).

The Kd is the free concentration of one partner at which half of the binding sites on the other are occupied at equilibrium, for simple one-to-one binding.

The experiment deals with T1, rAr-FAR-1 (Ar-FAR-1) (Aphelenchoides ritzemabosi, UniProt A0A2D0WIZ9).
T1 construct: full-length 181 aa ORF with signal peptide (18 aa, cleavage Ala18/Glu19); E. coli BL21(DE3)
T1 sequence (A0A2D0WIZ9 1-181): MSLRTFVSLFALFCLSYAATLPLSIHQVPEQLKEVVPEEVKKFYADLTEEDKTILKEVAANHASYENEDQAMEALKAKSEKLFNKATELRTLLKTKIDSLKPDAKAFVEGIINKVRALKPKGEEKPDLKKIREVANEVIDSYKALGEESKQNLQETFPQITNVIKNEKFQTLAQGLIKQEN
Briefly: fluorescence titration. It is filed as binding.

For `CC1=C(/C=C/C(C)=C/C=C/C(C)=C/CO)C(C)(C)CCC1` [retinol], binding was put at a Kd of 67.9 nM. The figure for `CN(C)c1cccc2c(S(=O)(=O)NCCCCCCCCCCC(=O)O)cccc12` [DAUDA, 11-(5-dimethylaminonaphthalene-1-sulfonylamino) undecanoic acid] is 40.5 nM.
